Assay results reported in PubChem BioAssay AID330 (DTP/NCI, 2004).
“And” between values parts separate entries of the source, which are not always exact repeats. Equal values may be shown once. Toxic doses and inconclusive results are not listed. Rule for the calls: active = survival T/C of 150% or more; inactive = T/C below 125% in these data.

System: P388 leukemia ip, CD2F1 mice, survival T/C
Test: NCI In Vivo Anticancer Drug Screen. Data for tumor model P388 Leukemia (intraperitoneal) in CD2F1 (CDF1) mice
Details: endpoint: median survival time, higher = longer survival
Procedure, shortened: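 Mice carrying the transplanted tumor received test compound or vehicle. Survival was recorded in each group, and the value is the treated-group measurement divided by that of the vehicle-treated control group.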

[1] = dose: 50.0 mg/kg/injection, schedule: Q01DX009 (ip), vehicle: saline with Tween-80
[2] = dose: 100.0 mg/kg/injection, schedule: Q01DX009 (ip), vehicle: saline with Tween-80
[3] = dose: 200.0 mg/kg/injection, schedule: Q01DX009 (ip), vehicle: saline with Tween-80
[4] = dose: 60.0 mg/kg/injection, schedule: Q01DX005 (ip), vehicle: Klucel (hydroxypropylcellulose) (HPC)
[5] = dose: 120.0 mg/kg/injection, schedule: Q01DX005 (ip), vehicle: Klucel (hydroxypropylcellulose) (HPC)
[6] = dose: 240.0 mg/kg/injection, schedule: Q01DX005 (ip), vehicle: Klucel (hydroxypropylcellulose) (HPC)
[7] = dose: 50.0 mg/kg/injection, schedule: Q01DX005 (ip), vehicle: Klucel (hydroxypropylcellulose) (HPC)
[8] = dose: 100.0 mg/kg/injection, schedule: Q01DX005 (ip), vehicle: Klucel (hydroxypropylcellulose) (HPC)
[9] = dose: 200.0 mg/kg/injection, schedule: Q01DX005 (ip), vehicle: Klucel (hydroxypropylcellulose) (HPC)
[10] = dose: 30.0 mg/kg/injection, schedule: Q01DX005 (ip), vehicle: Klucel (hydroxypropylcellulose) (HPC)

Measured: T/C

Nc1nnc(-c2cccc(-c3nnc(N)o3)c2)o1
inactive: dose: 60.0 mg/kg/injection, schedule: Q01DX005 (ip), vehicle: saline 98 % of control | dose: 120.0 mg/kg/injection, schedule: Q01DX005 (ip), vehicle: saline 99 % of control | dose: 240.0 mg/kg/injection, schedule: Q01DX005 (ip), vehicle: saline 102 % of control

CN1CCC2CC1c1ccn(C)c1C2=O (stereo not given)
inactive: dose: 7.5 mg/kg/injection, schedule: Q01DX005 (ip), vehicle: saline 93 % of control | dose: 15.0 mg/kg/injection, schedule: Q01DX005 (ip), vehicle: saline 96 % of control | dose: 30.0 mg/kg/injection, schedule: Q01DX005 (ip), vehicle: saline 106 % of control

C=C=C(COC(C)=O)ON1CCCCC1
inactive: dose: 50.0 mg/kg/injection, schedule: Q01DX005 (ip), vehicle: saline 111 % of control | dose: 100.0 mg/kg/injection, schedule: Q01DX005 (ip), vehicle: saline 111 % of control

CNc1nc(-c2ccccc2)c(-c2ccccc2)[nH]1
inactive: dose: 6.25 mg/kg/injection, schedule: Q04DX002 (ip), vehicle: saline 105 % of control | dose: 12.5 mg/kg/injection, schedule: Q04DX002 (ip), vehicle: saline 100 % of control | dose: 25.0 mg/kg/injection, schedule: Q04DX002 (ip), vehicle: saline 97 % of control

Nc1nc2c(-c3ccc([N+](=O)[O-])cc3)nnn2c2ccccc12
inactive: [1] 95 % of control | [2] 86 % of control | [3] 95 % of control

CCCCCCC(O)C/C=C\CCCCCCc1c(C(=O)OC)[nH]c(=S)[nH]c1=O (stereo not given)
inactive: dose: 60.0 mg/kg/injection, schedule: Q01DX005 (ip), vehicle: saline with Tween-80 94 % of control | dose: 120.0 mg/kg/injection, schedule: Q01DX005 (ip), vehicle: saline with Tween-80 97 % of control

COC1=CC(=O)C2=C(OCO2)C1=O
inactive: dose: 6.25 mg/kg/injection, schedule: Q04DX002 (ip), vehicle: saline with Tween-80 104 % of control | dose: 12.5 mg/kg/injection, schedule: Q04DX002 (ip), vehicle: saline with Tween-80 109 % of control | dose: 25.0 mg/kg/injection, schedule: Q04DX002 (ip), vehicle: saline with Tween-80 103 % of control

c1ccc2c(c1)Cc1c-2n[nH]c1-c1[nH]nc2c1Cc1ccccc1-2
inactive: [4] 96 % of control | [5] 102 % of control | [6] 96 % of control

CCCCCCCCCCCCCCCCCCOCC(O)CO (stereo not given)
inactive: dose: 25.0 mg/kg/injection, schedule: Q01DX009 (ip), vehicle: saline + alcohol 91 % of control | dose: 50.0 mg/kg/injection, schedule: Q01DX009 (ip), vehicle: saline + alcohol 92 % of control | dose: 100.0 mg/kg/injection, schedule: Q01DX009 (ip), vehicle: saline + alcohol 94 % of control | dose: 200.0 mg/kg/injection, schedule: Q01DX009 (ip), vehicle: saline + alcohol 100 % of control | dose: 400.0 mg/kg/injection, schedule: Q01DX009 (ip), vehicle: saline + alcohol 100 % of control

Nc1cccc2c1C(=O)c1nc3ccccc3nc1C2=O
inactive: dose: 100.0 mg/kg/injection, schedule: Q01DX001 (ip), vehicle: Klucel + Tween-80 98 % of control | dose: 200.0 mg/kg/injection, schedule: Q01DX001 (ip), vehicle: Klucel + Tween-80 94 % of control | dose: 400.0 mg/kg/injection, schedule: Q01DX001 (ip), vehicle: Klucel + Tween-80 94 % of control

CCCCC(CCCC)=NNC(=S)SC
inactive: [1] 100 % of control | [2] 100 % of control

O=[N+]([O-])c1ccc2c(Cl)c3ccccc3nc2c1
inactive: [1] 95 % of control | [2] 103 % of control | [3] 94 % of control

O=CN(Nc1ccccc1)C(=O)Nc1ccc(Cl)c(Cl)c1
inactive: dose: 100.0 mg/kg/injection, schedule: Q04DX002 (ip), vehicle: Klucel (hydroxypropylcellulose) (HPC) 96 % of control | dose: 200.0 mg/kg/injection, schedule: Q04DX002 (ip), vehicle: Klucel (hydroxypropylcellulose) (HPC) 97 % of control | dose: 400.0 mg/kg/injection, schedule: Q04DX002 (ip), vehicle: Klucel (hydroxypropylcellulose) (HPC) 104 % of control

Cc1ccc(S(=O)(=O)N/N=C/c2ccc(O)c(O)c2)cc1
inactive: dose: 12.5 mg/kg/injection, schedule: Q01DX009 (ip), vehicle: other 112 % of control | dose: 25.0 mg/kg/injection, schedule: Q01DX009 (ip), vehicle: other 112 % of control | dose: 50.0 mg/kg/injection, schedule: Q01DX009 (ip), vehicle: other 112 % of control | dose: 100.0 mg/kg/injection, schedule: Q01DX009 (ip), vehicle: other 111 % of control and 120 % of control | dose: 200.0 mg/kg/injection, schedule: Q01DX009 (ip), vehicle: other 112 % of control and 121 % of control | dose: 400.0 mg/kg/injection, schedule: Q01DX009 (ip), vehicle: other 122 % of control

CCOC(=O)c1n[nH]c(=S)[nH]c1=O
inactive: [7] 104 % of control | [8] 108 % of control | [9] 101 % of control

CCCC(C)C(=O)N(C(C)=O)c1ccc(Cl)c(Cl)c1 (stereo not given)
inactive: [1] 103 % of control | [2] 103 % of control | [3] 110 % of control

CN(C)Cc1ccc2ccccc2c1O
inactive: dose: 50.0 mg/kg/injection, schedule: Q01DX009 (ip), vehicle: saline 104 % of control | dose: 100.0 mg/kg/injection, schedule: Q01DX009 (ip), vehicle: saline 109 % of control

c1cc2c3c(c1)CCC3CCC2 (stereo not given)
inactive: [1] 112 % of control | [2] 109 % of control and 117 % of control | [3] 118 % of control

CCN1C(=O)NC(=O)C(C)(N2CCCCC2)C1=O (stereo not given)
inactive: [7] 108 % of control | [8] 103 % of control | [9] 100 % of control

CCCOC(=O)CCCC1=NC2=CC=CC3=NC(C)=NC(=N1)N23
inactive: dose: 25.0 mg/kg/injection, schedule: Q01DX009 (ip), vehicle: saline with Tween-80 107 % of control | [1] 104 % of control | [2] 104 % of control

CSc1nc(N)c(NS(=O)(=O)c2ccc([N+](=O)[O-])cc2)c(=O)[nH]1
inactive: dose: 15.0 mg/kg/injection, schedule: Q01DX005 (ip), vehicle: Klucel (hydroxypropylcellulose) (HPC) 99 % of control | [10] 87 % of control | [4] 91 % of control and 93 % of control

CCn1c(=O)c2[nH]c(=S)[nH]c2n(CC)c1=O
inactive: dose: 16.0 mg/kg/injection, schedule: Q01DX009 (ip), vehicle: Klucel (hydroxypropylcellulose) (HPC) 108 % of control | dose: 32.0 mg/kg/injection, schedule: Q01DX009 (ip), vehicle: Klucel (hydroxypropylcellulose) (HPC) 104 % of control | dose: 50.0 mg/kg/injection, schedule: Q01DX009 (ip), vehicle: Klucel (hydroxypropylcellulose) (HPC) 105 % of control | dose: 64.0 mg/kg/injection, schedule: Q01DX009 (ip), vehicle: Klucel (hydroxypropylcellulose) (HPC) 107 % of control | dose: 100.0 mg/kg/injection, schedule: Q01DX009 (ip), vehicle: Klucel (hydroxypropylcellulose) (HPC) 95 % of control | dose: 200.0 mg/kg/injection, schedule: Q01DX009 (ip), vehicle: Klucel (hydroxypropylcellulose) (HPC) 102 % of control

CCCC1CC[N-]CC1.CCCC1CC[N-]CC1.[Cl][Pt+2]([Cl])([Cl])[Cl]
inactive: dose: 1.0 mg/kg/injection, schedule: Q01DX009 (ip), vehicle: saline with Tween-80 90 % of control | dose: 2.0 mg/kg/injection, schedule: Q01DX009 (ip), vehicle: saline with Tween-80 95 % of control | dose: 3.75 mg/kg/injection, schedule: Q01DX009 (ip), vehicle: saline with Tween-80 100 % of control | dose: 4.0 mg/kg/injection, schedule: Q01DX009 (ip), vehicle: saline with Tween-80 100 % of control | dose: 11.0 mg/kg/injection, schedule: Q01DX009 (ip), vehicle: saline with Tween-80 118 % of control | dose: 25.0 mg/kg/injection, schedule: Q04DX003 (ip), vehicle: saline with Tween-80 110 % of control | dose: 37.5 mg/kg/injection, schedule: Q01DX009 (ip), vehicle: saline with Tween-80 118 % of control | dose: 50.0 mg/kg/injection, schedule: Q04DX003 (ip), vehicle: saline with Tween-80 120 % of control | dose: 75.0 mg/kg/injection, schedule: Q04DX003 (ip), vehicle: saline with Tween-80 95 % of control

O=C1CSC(C2CCCCC2)N1c1nncs1 (stereo not given)
inactive: [10] 100 % of control | [4] 100 % of control | [5] 101 % of control | [6] 107 % of control

O=C(O)CSC(CC(=O)O)C(F)(F)C(F)(F)C(F)(F)F (stereo not given)
inactive: dose: 176.0 mg/kg/injection, schedule: Q04DX003 (ip), vehicle: saline 100 % of control | dose: 264.0 mg/kg/injection, schedule: Q04DX003 (ip), vehicle: saline 95 % of control
